tested on: Nrf2 (NQO1 activity in BEAS-2B cells); test: BEAS-2B NQO1 MTT Assay; format: cell-based; settings: Homo sapiens, 48 hours, NQO1 specific activity induction, read-out: EC50
Text: NAD(P)H:quinone oxidoreductase 1 (NQO1), also called DT diaphorase, is a homodimeric FAD-containing enzyme that catalyzes obligatory NAD(P)H-dependent two-electron reductions of quinones and protects cells against the toxic and neoplastic effects of free radicals and reactive oxygen species arising from one-electron reductions. The transcription of NQO1 is finely regulated by Nrf2, and thus NQO1 activity is a good marker for Nrf2 activation. On day one, frozen BEAS-2B cells (ATCC) were thawed in a water bath, counted, and re-suspended at a concentration of 250,000 cells/mL. Fifty microliters of cells were plated in 384 well black clear-bottomed plates. Plates were incubated at 37° C., 5% CO2 overnight. On day two, plates were centrifuged and 50 nL of compound or controls were added to the cells. Plates were then incubated at 37° C., 5% CO2 for 48 hours. On day four, medium was aspirated from the plate and crude cell lysates were made by adding 13 μL of 1× Cell Signalling Technologies lysis buffer with 1 Complete, Mini, EDTA-free Protease Inhibitor Tablet (Roche) for each 10 mL of lysis buffer. After lysis plates were incubated for 20 minutes at room temperature. Two microliters of lysate were removed for use in Cell Titer Glo assay (Promega) and MTT cocktail was prepared (Prochaska et. al. 1998) for measurement of NQO1 activity. Fifty microliters of MTT cocktail was added to each well, plate was centrifuged, and analyzed on an Envision plate reader (Perkin Elmer) using Absorbance 570 nm label for 30 minutes. Product formation was measured kinetically and the pEC50 of NQO1 specific activity induction was calculated by plotting the change in absorbance (Delta OD/min) versus the log of compound concentration followed by 3-parameter fitting.
EC50s<1 nM (+++++), EC50s 1 nM-10 nM (++++), EC50s 10 nM-100 nM (+++), EC50s 100 nM-1 μM (++), EC50s 1 μM-10 μM (+).

| SMILES | EC50 [nM] |
| --- | --- |
| CC[C@H]1CN(Cc2cc([C@@H](c3ccc4c(nnn4C)c3C)C(C)(C)C(=O)O)ccc2C)Cc2nc(O)ccc2O1 [Example 18, (S)-3-(1,4-dimethyl-1H-benzo[d][1,2,3]triazol-5-yl)-3-(3-(((S)-2-ethyl-7-hydroxy-2,3-dihydropyrido[2,3-f][1,4]oxazepin-4(5H)-yl)methyl)-4-methylphenyl)-2,2-dimethylpropanoic acid] | 1 to 10 |
| Cc1ccc([C@@H](c2ccc3c(nnn3C)c2C)C(C)(C)C(=O)O)cc1CN1Cc2nc(O)ccc2O[C@H](C(F)(F)F)C1 [Example 19, (S)-3-(1,4-dimethyl-1H-benzo[d][1,2,3]triazol-5-yl)-3-(3-(((S)-7-hydroxy-2-(trifluoromethyl)-2,3-dihydropyrido[2,3-f][1,4]oxazepin-4(5H)-yl)methyl)-4-methylphenyl)-2,2-dimethylpropanoic acid] | < 1 |
| Cc1ccc([C@@H](c2ccc3c(nnn3C)c2C)C(C)(C)C(=O)O)cc1CN1Cc2nc(O)ccc2O[C@@H](C(C)C)C1 [Example 16, (S)-3-(1,4-dimethyl-1H-benzo[d][1,2,3]triazol-5-yl)-3-(3-(((S)-7-hydroxy-2-isopropyl-2,3-dihydropyrido[2,3-f][1,4]oxazepin-4(5H)-yl)methyl)-4-methylphenyl)-2,2-dimethylpropanoic acid] | 1 to 10 |
| Cc1ccc([C@@H](CC(=O)O)c2ccc3c(nnn3C)c2C)cc1CN1Cc2nc(O)ccc2OC2(CCC2)C1 [Example 29] | 10 to 100 |
| CC[C@H]1CN(Cc2cc([C@@H](CC(=O)O)c3ccc4c(nnn4C)c3C)ccc2C)Cc2nc(O)ccc2O1 [Example 7, (R)-3-(1,4-dimethyl-1H-benzo[d][1,2,3]triazol-5-yl)-3-(3-(((S)-2-ethyl-7-hydroxy-2,3-dihydropyrido[2,3-f][1,4]oxazepin-4(5H)-yl)methyl)-4-methylphenyl)propanoic acid] | 100 to 1000 |
| Cc1ccc([C@@H](CC(=O)O)c2ccc3c(nnn3C)c2C)cc1CN1Cc2nc(O)ccc2O[C@H](C(C)C)C1 [Example 3, (R)-3-(1,4-dimethyl-1H-benzo[d][1,2,3]triazol-5-yl)-3-(3-(((R)-7-hydroxy-2-isopropyl-2,3-dihydropyrido[2,3-f][1,4]oxazepin-4(5H)-yl)methyl)-4-methylphenyl)propanoic acid] | 1 to 10 |
| Cc1ccc([C@@H](c2ccc3c(nnn3C)c2C)C(C)(C)C(=O)O)cc1CN1Cc2nc(O)ccc2OC(C)(C)C1 [Example 17, (S)-3-(1,4-dimethyl-1H-benzo[d][1,2,3]triazol-5-yl)-3-(3-((7-hydroxy-2,2-dimethyl-2,3-dihydropyrido[2,3-f][1,4]oxazepin-4(5H)-yl)methyl)-4-methylphenyl)-2,2-dimethylpropanoic acid] | 1 to 10 |
| Cc1ccc([C@@H](CC(=O)O)c2ccc3c(nnn3C)c2C)cc1CN1Cc2nc(O)ccc2O[C@H](C)C1 [Example 4, (R)-3-(1,4-dimethyl-1H-benzo[d][1,2,3]triazol-5-yl)-3-(3-(((R)-7-hydroxy-2-methyl-2,3-dihydropyrido[2,3-f][1,4]oxazepin-4(5H)-yl)methyl)-4-methylphenyl)propanoic acid] | 10 to 100 |
| Cc1ccc([C@H](CC(=O)O)c2ccc3c(nnn3C)c2C)cc1CN1Cc2nc(O)ccc2OC(C)(C)C1 [Example 11, (S)-3-(1,4-dimethyl-1H-benzo[d][1,2,3]triazol-5-yl)-3-(3-((7-hydroxy-2,2-dimethyl-2,3-dihydropyrido[2,3-f][1,4]oxazepin-4(5H)-yl)methyl)-4-methylphenyl)propanoic acid] | 100 to 1000 |
| Cc1ccc([C@@H](c2ccc3c(nnn3C)c2C)C(C)(C)C(=O)O)cc1CN1CCOc2ccc(O)nc2C1 [Example 24, (S)-3-(1,4-dimethyl-1H-benzo[d][1,2,3]triazol-5-yl)-3-(3-((7-hydroxy-2,3-dihydropyrido[2,3-f][1,4]oxazepin-4(5H)-yl)methyl)-4-methylphenyl)-2,2-dimethylpropanoic acid] | 10 to 100 |
| CC[C@@H]1CN(Cc2cc([C@H](CC(=O)O)c3ccc4c(nnn4C)c3C)ccc2C)Cc2nc(O)ccc2O1 [Example 10, (S)-3-(1,4-dimethyl-1H-benzo[d][1,2,3]triazol-5-yl)-3-(3-(((R)-2-ethyl-7-hydroxy-2,3-dihydropyrido[2,3-f][1,4]oxazepin-4(5H)-yl)methyl)-4-methylphenyl)propanoic acid] | 10 to 100 |
| Cc1ccc([C@@H](CC(=O)O)c2ccc3c(nnn3C)c2C)cc1CN1Cc2nc(O)ccc2O[C@H](C(F)(F)F)C1 [Example 6, (R)-3-(1,4-dimethyl-1H-benzo[d][1,2,3]triazol-5-yl)-3-(3-(((S)-7-hydroxy-2-(trifluoromethyl)-2,3-dihydropyrido[2,3-f][1,4]oxazepin-4(5H)-yl)methyl)-4-methylphenyl)propanoic acidacid] | 10 to 100 |
| Cc1ccc([C@@H](c2ccc3c(nnn3C)c2C)C(C)(C)C(=O)O)cc1CN1Cc2nc(O)ccc2O[C@@H](C(F)(F)F)C1 [Example 21, (S)-3-(1,4-dimethyl-1H-benzo[d][1,2,3]triazol-5-yl)-3-(3-(((R)-7-hydroxy-2-(trifluoromethyl)-2,3-dihydropyrido[2,3-f][1,4]oxazepin-4(5H)-yl)methyl)-4-methylphenyl)-2,2-dimethylpropanoic acid] | 10 to 100 |
| Cc1ccc([C@@H](c2ccc3c(nnn3C)c2C)C(C)(C)C(=O)O)cc1CN1Cc2nc(O)ccc2O[C@H](C(C)C)C1 [Example 15, (S)-3-(1,4-dimethyl-1H-benzo[d][1,2,3]triazol-5-yl)-3-(3-(((R)-7-hydroxy-2-isopropyl-2,3-dihydropyrido[2,3-f][1,4]oxazepin-4(5H)-yl)methyl)-4-methylphenyl)-2,2-dimethylpropanoic acid] | < 1 |
| Cc1ccc([C@H](CC(=O)O)c2ccc3c(nnn3C)c2C)cc1CN1Cc2nc(O)ccc2O[C@H](C(F)(F)F)C1 [Example 25, (S)-3-(1,4-dimethyl-1H-benzo[d][1,2,3]triazol-5-yl)-3-(3-(((S)-7-hydroxy-2-(trifluoromethyl)-2,3-dihydropyrido[2,3-f][1,4]oxazepin-4(5H)-yl)methyl)-4-methylphenyl)propanoic acid] | 10 to 100 |
| CC[C@@H]1CN(Cc2cc([C@@H](c3ccc4c(nnn4C)c3C)C(C)(C)C(=O)O)ccc2C)Cc2nc(O)ccc2O1 [Example 13, (S)-3-(1,4-dimethyl-1H-benzo[d][1,2,3]triazol-5-yl)-3-(3-(((R)-2-ethyl-7-hydroxy-2,3-dihydropyrido[2,3-f][1,4]oxazepin-4(5H)-yl)methyl)-4-methylphenyl)-2,2-dimethyl propanoic acid] | < 1 |
| Cc1ccc([C@@H](CC(=O)O)c2ccc3c(nnn3C)c2C)cc1CN1Cc2nc(O)ccc2OC(C)(C)C1 [Example 5, (R)-3-(1,4-dimethyl-1H-benzo[d][1,2,3]triazol-5-yl)-3-(3-((7-hydroxy-2,2-dimethyl-2,3-dihydropyrido[2,3-f][1,4]oxazepin-4(5H)-yl)methyl)-4-methylphenyl)propanoic acid] | 10 to 100 |
| Cc1ccc([C@H](CC(=O)O)c2ccc3c(nnn3C)c2C)cc1CN1Cc2nc(O)ccc2O[C@H](C(C)C)C1 [Example 8, (S)-3-(1,4-dimethyl-1H-benzo[d][1,2,3]triazol-5-yl)-3-(3-(((R)-7-hydroxy-2-isopropyl-2,3-dihydropyrido[2,3-f][1,4]oxazepin-4(5H)-yl)methyl)-4-methylphenyl)propanoic acid] | 10 to 100 |
| CC[C@@H]1CN(Cc2cc([C@@H](CC(=O)O)c3ccc4c(nnn4C)c3C)ccc2C)Cc2nc(O)c(F)cc2O1 [Example 22, (R)-3-(1,4-dimethyl-1H-benzo[d][1,2,3]triazol-5-yl)-3-(3-(((R)-2-ethyl-8-fluoro-7-hydroxy-2,3-dihydropyrido[2,3-f][1,4]oxazepin-4(5H)-yl)methyl)-4-methylphenyl)propanoic acid] | 1 to 10 |
| Cc1ccc([C@@H](c2ccc3c(nnn3C)c2C)C(C)(C)C(=O)O)cc1CN1Cc2nc(O)ccc2O[C@H](C)C1 [Example 14, (S)-3-(1,4-dimethyl-1H-benzo[d][1,2,3]triazol-5-yl)-3-(3-(((R)-7-hydroxy-2-methyl-2,3-dihydropyrido[2,3-f][1,4]oxazepin-4(5H)-yl)methyl)-4-methylphenyl)-2,2-dimethylpropanoic acid] | 1 to 10 |
| Cc1ccc([C@H](CC(=O)O)c2ccc3c(nnn3C)c2C)cc1CN1Cc2nc(O)ccc2O[C@@H](C(C)C)C1 [Example 9, (S)-3-(1,4-dimethyl-1H-benzo[d][1,2,3]triazol-5-yl)-3-(3-(((S)-7-hydroxy-2-isopropyl-2,3-dihydropyrido[2,3-f][1,4]oxazepin-4(5H)-yl)methyl)-4-methylphenyl)propanoic acid] | 100 to 1000 |
| CC[C@]1(C)CN(Cc2cc([C@@H](CC(=O)O)c3ccc4c(nnn4C)c3C)ccc2C)Cc2nc(O)ccc2O1 [Example 26, (R)-3-(1,4-dimethyl-1H-benzo[d][1,2,3]triazol-5-yl)-3-(3-(((R)-2-ethyl-7-hydroxy-2-methyl-2,3-dihydropyrido[2,3-f][1,4]oxazepin-4(5H)-yl)methyl)-4-methylphenyl)propanonic acid] | 100 to 1000 |
